Results taken from PubChem BioAssay (NCI).
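Results reflect a 48-hour exposure of cells in 96-well plates to compound at five concentrations. TGI is the concentration that stops growth completely.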

Assays:
Experiment in all cases: NCI tumour cell line growth inhibition, 48 h
IGROV1 ovarian = tested on: IGROV1 ovarian
UO-31 renal = tested on: UO-31 renal
UACC-257 melanoma = tested on: UACC-257 melanoma
SK-OV-3 ovarian = tested on: SK-OV-3 ovarian
SR leukemia = tested on: SR leukemia
HCC-2998 colon = tested on: HCC-2998 colon
SF-295 CNS = tested on: SF-295 CNS
LXFL 529 NSCLC = tested on: LXFL 529 NSCLC
KM12 colon = tested on: KM12 colon
A549 NSCLC = tested on: A549 NSCLC
NCI-H460 lung = tested on: NCI-H460 lung
UACC-62 melanoma = tested on: UACC-62 melanoma
SNB-75 CNS = tested on: SNB-75 CNS
U251 CNS = tested on: U251 CNS
SF-268 CNS = tested on: SF-268 CNS
A498 renal = tested on: A498 renal
NCI-H522 lung = tested on: NCI-H522 lung
ACHN renal = tested on: ACHN renal
RPMI-8226 leukemia = tested on: RPMI-8226 leukemia
TK-10 renal = tested on: TK-10 renal
OVCAR-3 ovarian = tested on: OVCAR-3 ovarian
COLO 205 colon = tested on: COLO 205 colon
NCI-H226 lung = tested on: NCI-H226 lung
M19-MEL melanoma = tested on: M19-MEL melanoma
HT29 colon = tested on: HT29 colon
XF 498 CNS = tested on: XF 498 CNS
HCT-116 colon = tested on: HCT-116 colon
SNB-19 CNS = tested on: SNB-19 CNS
HOP-92 NSCLC = tested on: HOP-92 NSCLC
OVCAR-5 ovarian = tested on: OVCAR-5 ovarian
SK-MEL-28 melanoma = tested on: SK-MEL-28 melanoma
LOX IMVI melanoma = tested on: LOX IMVI melanoma
DMS 114 small cell lung = tested on: DMS 114 small cell lung
DMS 273 small cell lung = tested on: DMS 273 small cell lung
M14 melanoma = tested on: M14 melanoma
CAKI-1 renal = tested on: CAKI-1 renal
HOP-62 NSCLC = tested on: HOP-62 NSCLC
SK-MEL-2 melanoma = tested on: SK-MEL-2 melanoma
NCI-H23 lung = tested on: NCI-H23 lung
KM20L2 colon = tested on: KM20L2 colon
HCT-15 colon = tested on: HCT-15 colon
SN12C renal = tested on: SN12C renal
EKVX NSCLC = tested on: EKVX NSCLC
K-562 leukemia = tested on: K-562 leukemia
CCRF-CEM leukemia = tested on: CCRF-CEM leukemia
SW-620 colon = tested on: SW-620 colon
OVCAR-8 ovarian = tested on: OVCAR-8 ovarian
HOP-18 NSCLC = tested on: HOP-18 NSCLC
786-0 renal = tested on: 786-0 renal
SK-MEL-5 melanoma = tested on: SK-MEL-5 melanoma
RXF 393 renal = tested on: RXF 393 renal
OVCAR-4 ovarian = tested on: OVCAR-4 ovarian
DLD-1 colon = tested on: DLD-1 colon
MALME-3M melanoma = tested on: MALME-3M melanoma

Measured: TGI

CC(=O)OCC1OC(n2ccc(=O)[nH]c2=O)C(OC(C)=O)C(OC(C)=O)C1OC(C)=O (centres undefined)
> 100 µM: all assays above
